Experimental data: article PMC10819888, “Benzimidazole-Based Derivatives as Apoptotic Antiproliferative Agents: Design, Synthesis, Docking, and Mechanistic Studies” (Molecules, 2024)
Like-named read-outs stand apart in the source and are kept apart here.

What was measured:
CCRF-CEM = test: NCI-60 five-dose assay; format: cell-based, human; conditions: CCRF-CEM, Leukemia
NCI-H226 = test: NCI-60 five-dose assay; format: cell-based, human; conditions: NCI-H226, Non-Small Cell Lung Cancer
NCI-H322M = test: NCI-60 five-dose assay; format: cell-based, human; conditions: NCI-H322M, Non-Small Cell Lung Cancer
NCI-H522 = test: NCI-60 five-dose assay; format: cell-based, human; conditions: NCI-H522, Non-Small Cell Lung Cancer
HCT-116 = test: NCI-60 five-dose assay; format: cell-based, human; conditions: HCT-116, Colon Cancer
HT29 = test: NCI-60 five-dose assay; format: cell-based, human; conditions: HT29, Colon Cancer
SF-539 = test: NCI-60 five-dose assay; format: cell-based, human; conditions: SF-539, CNS Cancer
SNB-19 = test: NCI-60 five-dose assay; format: cell-based, human; conditions: SNB-19, CNS Cancer
U251 = test: NCI-60 five-dose assay; format: cell-based, human; conditions: U251, CNS Cancer
LOX IMVI = test: NCI-60 five-dose assay; format: cell-based, human; conditions: LOX IMVI, Melanoma
UACC-257 = test: NCI-60 five-dose assay; format: cell-based, human; conditions: UACC-257, Melanoma
UACC-62 = test: NCI-60 five-dose assay; format: cell-based, human; conditions: UACC-62, Melanoma
IGROV1 = test: NCI-60 five-dose assay; format: cell-based, human; conditions: IGROV1, Ovarian Cancer
OVCAR-4 = test: NCI-60 five-dose assay; format: cell-based, human; conditions: OVCAR-4, Ovarian Cancer
SK-OV-3 = test: NCI-60 five-dose assay; format: cell-based, human; conditions: SK-OV-3, Ovarian Cancer
ACHN = test: NCI-60 five-dose assay; format: cell-based, human; conditions: ACHN, Renal Cancer
CAKI-1 = test: NCI-60 five-dose assay; format: cell-based, human; conditions: CAKI-1, Renal Cancer
RXF 393 = test: NCI-60 five-dose assay; format: cell-based, human; conditions: RXF 393, Renal Cancer
DU-145 = test: NCI-60 five-dose assay; format: cell-based, human; conditions: DU-145, Prostate Cancer
BT-549 = test: NCI-60 five-dose assay; format: cell-based, human; conditions: Homo sapiens, BT-549, Breast Cancer
T-47D = test: NCI-60 five-dose assay; format: cell-based, human; conditions: T-47D, Breast Cancer
Ovarian Cancer subpanel = test: NCI-60 five-dose assay, subpanel; format: cell-based, human; conditions: Ovarian Cancer
Renal Cancer subpanel = test: NCI-60 five-dose assay, subpanel; format: cell-based, human; conditions: Renal Cancer
Prostate Cancer subpanel = test: NCI-60 five-dose assay, subpanel; format: cell-based, human; conditions: Prostate Cancer
[1] = test system: full panel of 60 human tumor cell lines; test: NCI-60 five-dose assay, full panel; format: cell-based
[2] = Homo sapiens, read-out: GI50 Conc. per Cell Line
[3] = Homo sapiens, read-out: LC50 (the source's name)
[4] = Homo sapiens, average sensitivity of all subpanel cell lines, read-out: GI50 Subpanel MID b

Work on `COc1ccc(C=NNC(=O)c2ccc3[nH]c(-c4ccc(Cl)cc4)nc3c2)cc1` [Compound 4g, N′-(4-Methoxybenzylidene)-2-(4-chlorophenyl)-1H-benzimidazole-5-carbohydrazide] yielded a TGI (CCRF-CEM) of over 100 µM, a GI50 (CCRF-CEM; [2]) of 4.9 µM and a CC50 (CCRF-CEM; [3]) of over 100 µM. The GI50 (NCI-H226; [2]) was 1.79 µM, the CC50 (NCI-H226; [3]) was 13.5 µM and the TGI (NCI-H226) was 4.43 µM. It also gave a GI50 (NCI-H322M; [2]) of 2.49 µM, a CC50 (NCI-H322M; [3]) of 55.4 µM and a TGI (NCI-H322M) of 7.20 µM. It also gave a GI50 (NCI-H522; [2]) of 7.6 µM, a CC50 (NCI-H522; [3]) of over 100 µM and a TGI (NCI-H522) of 81.50 µM. The TGI (HCT-116) was 5.12 µM, the GI50 (HCT-116; [2]) was 2.14 µM and the CC50 (HCT-116; [3]) was 18.9 µM. For the same molecule, the TGI (HT29) was 22.10 µM, the GI50 (HT29; Homo sapiens, HT-29, read-out: GI50 Conc. per Cell Line) was 3.09 µM and the CC50 (HT29; Homo sapiens, HT-29, read-out: LC50 (the source's name)) was over 100 µM. It also gave a GI50 (SF-539; [2]) of 1.73 µM, a CC50 (SF-539; [3]) of 6.92 µM and a TGI (SF-539) of 3.46 µM. The GI50 (SNB-19; [2]) was 3.13 µM, the CC50 (SNB-19; [3]) was 49.6 µM and the TGI (SNB-19) was 7.95 µM. For the same molecule, the GI50 (U251; Homo sapiens, U-251, read-out: GI50 Conc. per Cell Line) was 2.43 µM, the CC50 (U251; Homo sapiens, U-251, read-out: LC50 (the source's name)) was 30.4 µM and the TGI (U251) was 5.22 µM. It also gave a GI50 (LOX IMVI; [2]) of 2.19 µM, a CC50 (LOX IMVI; [3]) of 7.34 µM and a TGI (LOX IMVI) of 4.01 µM. It also gave a GI50 (UACC-257; [2]) of 3.27 µM, a CC50 (UACC-257; [3]) of 60 µM and a TGI (UACC-257) of 10.10 µM. For the same molecule, the GI50 (UACC-62; [2]) was 1.94 µM, the CC50 (UACC-62; [3]) was 10.9 µM and the TGI (UACC-62) was 4.47 µM. It also gave a GI50 (IGROV1; Homo sapiens, IGROV-1, read-out: GI50 Conc. per Cell Line) of 1.65 µM, a CC50 (IGROV1; Homo sapiens, IGROV-1, read-out: LC50 (the source's name)) of 9.57 µM and a TGI (IGROV1) of 3.97 µM. For the same molecule, the GI50 (OVCAR-4; [2]) was 1.79 µM, the CC50 (OVCAR-4; [3]) was 6.33 µM and the TGI (OVCAR-4) was 3.36 µM. The GI50 (SK-OV-3; [2]) was 2.3 µM, the CC50 (SK-OV-3; [3]) was 59.1 µM and the TGI (SK-OV-3) was 12.80 µM. For the same molecule, the TGI (ACHN) was 5.04 µM, the GI50 (ACHN; [2]) was 2 µM and the CC50 (ACHN; [3]) was 16.9 µM. The TGI (CAKI-1) was 6.03 µM, the GI50 (CAKI-1; [2]) was 2.1 µM and the CC50 (CAKI-1; [3]) was 25.6 µM. The GI50 (RXF 393; [2]) was 1.86 µM, the CC50 (RXF 393; [3]) was 7.76 µM and the TGI (RXF 393) was 3.80 µM. It also gave a TGI (DU-145) of 4.61 µM, a GI50 (DU-145; [2]) of 1.98 µM and a CC50 (DU-145; [3]) of 14 µM. The GI50 (BT-549; read-out: GI50 Conc. per Cell Line) was 3.36 µM, the CC50 (BT-549; read-out: LC50 (the source's name)) was over 100 µM and the GI50 (T-47D; Homo sapiens, T47D, read-out: GI50 Conc. per Cell Line) was 1.94 µM. It also gave a CC50 (T-47D; Homo sapiens, T47D, read-out: LC50 (the source's name)) of 30 µM, a TGI (T-47D) of 4.83 µM and a GI50 (Ovarian Cancer subpanel; [4]) of 3.05 µM. For the same molecule, the “GI50 Selectivity Ratio (MID a/MID b)” value (Ovarian Cancer subpanel) was 0.83, the GI50 (Renal Cancer subpanel; [4]) was 2.2 µM and the “GI50 Selectivity Ratio (MID a/MID b)” value (Renal Cancer subpanel) was 1.14. For the same molecule, the GI50 (Prostate Cancer subpanel; [4]) was 1.81 µM, the “GI50 Selectivity Ratio (MID a/MID b)” value (Prostate Cancer subpanel) was 1.39 and the GI50 ([1]; average sensitivity of all cell lines, read-out: MID a (GI50)) was 2.52 µM. The GI50 ([1]; five-dose assay, range over cell lines, read-out: GI50 range over the examined cell lines) was 0.997 to 7.81 µM.
